Test results: PubChem BioAssay AID1996
Converted amounts (≈) assume the structure as drawn.

settings: buffer; pH 7.4; 200.0 µM

Structure (SMILES)	solubility kinetic [µg/mL]
COc1cccc(C(=O)Nc2sc3c(c2C(=O)O)CCCC3)c1	> 49.7
COc1cc(S(=O)(=O)NCCCn2ccnc2)ccc1F	46.2 (≈ 147 µM)
CC(Oc1ccccc1)C(=O)N1CCN=C1SCc1ccccc1 (stereo not given)	19.9 (≈ 58.5 µM)
OCCCNCc1ccc(N(c2ccccc2)c2ccccc2)cc1	39 (≈ 117 µM)
O=C(Nc1cccc2ccccc12)c1ccccc1Cl	1.7 (≈ 6.03 µM)
CN(Cc1cccc(Cl)c1Cl)C(=O)CCNC(=O)c1ccco1	> 53.3
O=C(CN1CCN(c2ccc(F)cc2)CC1)Nc1nccs1	24.5 (≈ 76.5 µM)
CC(C)C(OC(=O)/C=C/c1ccc2c(c1)OCO2)C(=O)NC(N)=O (stereo not given)	6.6 (≈ 19.7 µM)
Cc1ccnc2nc(C(=O)OCC(=O)c3ccccc3)nn12	> 44.4
CCC1(C)NC(=O)N(/N=C/c2ccc(C)s2)C1=O (stereo not given)	> 39.8
CC(NC(=O)CCNC(=O)c1ccc(C(C)(C)C)cc1)c1ccccc1 (stereo not given)	17.1 (≈ 48.5 µM)
O=C(NC(=S)Nc1ccccn1)c1cccc([N+](=O)[O-])c1	6.2 (≈ 20.5 µM)
CC(C)C1Oc2ccccc2N(CC(=O)N2CCOCC2)C1=O (stereo not given)	> 47.8
O=C(Nc1cccc(O)c1)C1CC(c2c(F)cccc2Cl)=NO1 (stereo not given)	29.5 (≈ 88.1 µM)
CN(C)c1nc(N(C)C)nc(N2CC(CCl)OC2=N)n1 (stereo not given)	> 45
CN(CC(=O)Nc1cccc(C(F)(F)F)c1)Cc1ccccc1	20.8 (≈ 64.5 µM)
COc1ccc(NC(=O)C(C)SCc2ccccc2)cc1 (stereo not given)	40.9 (≈ 136 µM)
COC(=O)[C@H](CC(C)C)NC(=O)NCc1ccc(Cl)cc1	42.5 (≈ 136 µM)
O=C(NC1(Cc2ccc(O)cc2)CCCCC1)c1ccccc1	44.9 (≈ 145 µM)
Cc1ccc2c(Cl)cc(Cl)c(OCC(=O)O)c2n1	> 42.9
COc1ccc(CNC(=O)C2CC(C)=C(C)CC2C(=O)O)cc1OC (stereo not given)	> 52.1
OCCN1CCN(c2ncnc3sc4c(c23)CCCC4)CC1	> 47.8
CC1CC(Nc2ccccc2)c2ccccc2N1C(=O)c1ccncc1 (stereo not given)	25.9 (≈ 75.4 µM)
O=C(/C=C/c1ccc(O)c([N+](=O)[O-])c1)c1ccc2ccccc2c1	1.8 (≈ 5.64 µM)

Structure (SMILES)	solubility kinetic [µg/mL]
CC1=C(C(=O)Nc2ccccc2)C(c2cccs2)NC(=O)N1 (stereo not given)	41.3 (≈ 132 µM)
Nc1cccc(NC(=O)CCC(=O)NCc2ccco2)c1	> 43.1
CC(NC(=O)/C(=C\c1ccco1)NC(=O)c1ccco1)C(=O)O (stereo not given)	46.5 (≈ 146 µM)
O=C(NCCc1cccc(Cl)c1)c1cccs1	> 39.9
Cc1ccc(-c2nc(Nc3ccc(O)cc3)c3ccccc3n2)cc1	0.9 (≈ 2.75 µM)
CCN(c1ccccc1)S(=O)(=O)c1ccc(C(=O)NC2CCN(Cc3ccccc3)CC2)cc1	47.8 (≈ 100 µM)
O=C(c1ccco1)N1CCN(c2ccc([N+](=O)[O-])cn2)CC1	18.3 (≈ 60.5 µM)
COc1ccc(-c2nc(=S)n3ccsc3n2)cc1OC	4.4 (≈ 14.4 µM)
COc1ccc(OC)c(C2=NOC(C(=O)Nc3cc(C)on3)C2)c1 (stereo not given)	44.1 (≈ 133 µM)
COc1ccccc1C1=NOC(CN2C(=O)c3ccccc3S2(=O)=O)C1 (stereo not given)	34.6 (≈ 92.9 µM)
COC(=O)c1ccc(NC(=O)Nc2ccc(OC)cc2)cc1	1.4 (≈ 4.66 µM)
COc1ccc(CCNC(=O)C2CC=CCC2C(=O)O)cc1 (stereo not given)	> 45.5
Cl.c1ccc(Cc2ccc(OCCN3CCOCC3)cc2)cc1	42.2
O=C(NCC1CCCCC1)c1cccnc1	31.1 (≈ 142 µM)
CCOC(=O)c1c(SC)[nH]c2c(Cl)cccc2c1=O	1.4 (≈ 4.7 µM)
CC(C)OCCCNC(=O)COc1ccc2oc3c(c2c1)CCCC3	48.1 (≈ 139 µM)
O=C(NN1CCOCC1)c1ccc(Br)cc1	> 42.8
CCCOc1cccc(C(=O)Nc2ccc(CN3CCOCC3)cc2)c1	47.2 (≈ 133 µM)
CCC(=O)Nc1sc2c(c1C#N)CCC2	12.3 (≈ 55.8 µM)
CN(C)CCCNC(=O)N1c2ccccc2C=Cc2ccccc21.Cl	> 53.7
Cc1noc(C)c1S(=O)(=O)N1CCC(C(N)=O)CC1	> 43.1
COc1ccccc1C1CCN(c2ccc(CO)cc2[N+](=O)[O-])CC1	7.8 (≈ 22.8 µM)
COc1ccc(-c2csc(Nc3cc(C)ccn3)n2)cc1C	< 0.2
O=[N+]([O-])c1cc(C(F)(F)F)ccc1N1CCN(CCO)CC1	> 47.9

Structure (SMILES)	solubility kinetic [µg/mL]
Cc1ccc(NC(=O)COC(=O)c2ccco2)cc1C	23.3 (≈ 85.3 µM)
O=C(Nc1cccc2ccccc12)c1cccc([N+](=O)[O-])c1	1.4 (≈ 4.79 µM)
C#CCOc1ccc(/C=C2/C(=O)ON=C2C)cc1Br	42.7 (≈ 133 µM)
CC1(C)Cc2nc3sc4c(SCC(=O)O)ncnc4c3cc2CO1	53.2 (≈ 147 µM)
CC(=O)Nc1nc(C)c(C(C)C)s1	> 29.7
COc1cc(/C=C2\SC(N)=NC2=O)cc(Cl)c1O	9.6 (≈ 33.7 µM)
COc1ccc2c(c1)c(C(=O)O)c(C)n2-c1ccc(Cl)cc1	15.2 (≈ 48.1 µM)
CNc1nc(-c2ccc3c(c2)CCN3C(=O)CC(C)(C)C)c(C)s1	17.5 (≈ 50.9 µM)
Cc1ccccc1Nc1c(-c2ccccn2)nc2c(C)cccn12	1 (≈ 3.18 µM)
O=[N+]([O-])c1cccc(C(O)C23CN4CN(CN(C4)C2)C3)c1 (stereo not given)	> 43.5
O=C(NCCc1ccc(Cl)cc1)C12CC3CC(CC(O)(C3)C1)C2	46.9 (≈ 140 µM)
CCOc1cc(/C=C2/NC(=O)N(CC(=O)OC)C2=O)ccc1O	14.8 (≈ 46.2 µM)
O=C(NCc1ccccc1)NC12CC3CC(CC(C3)C1)C2	2.6 (≈ 9.14 µM)
CCCCOc1ccc(C(=O)OCC(=O)NC2CCCC2)cc1	5.5 (≈ 17.2 µM)
CCCCNc1ccc(C(=O)OCCN(C)C)cc1.Cl	> 45.1
CN(C)c1ccc(C(=S)N2CCCC2)cc1Br	44 (≈ 140 µM)
O=C(Nc1ccccc1)c1cccc(=O)o1	> 32.3
O=C(c1cccc([N+](=O)[O-])c1)N1CCc2ccccc21	2.1 (≈ 7.83 µM)
COC(=O)c1sc(N2CCCCC2)c(C#N)c1N	2.2 (≈ 8.29 µM)
NS(=O)(=O)c1ccc(NC(=S)NC(=O)C2CCCCC2)cc1	> 51.2
COc1ccc(NC(=O)CN(C)C(=O)c2ccc3ccccc3n2)cc1	> 52.4
Cc1ccc(SCCCCN2CCOCC2)cc1.Cl	> 45.3
CC(=O)c1ccc(S(=O)(=O)NC2CC2)cc1	26.1 (≈ 109 µM)
CCOc1ccc(NC(=O)Nc2ccc3c(c2)CCC3)cc1	< 0.3

Structure (SMILES)	solubility kinetic [µg/mL]
CCO/C=C1/C(=O)N(c2ccc(OC)cc2)C(=O)c2ccccc21	> 48.5
Cl.O=C(Nc1cccc(C(F)(F)F)c1)c1cccnc1NCCO	> 54.3
COc1cc(OC)c(C(=O)OCC(=O)Nc2ccc(N3CCOCC3)cc2)cc1OC	6.5 (≈ 15.1 µM)
Cl.N=C(c1cccc([N+](=O)[O-])c1)N1CCCCCC1	> 42.6
CC(C(=O)NC1CCCC1)N1C(=O)c2cccc3cccc1c23 (stereo not given)	> 46.3
Cc1ccc(C(=O)N2CCN(c3cccc(C)c3C)CC2)o1	31.8 (≈ 107 µM)
c1ccc(Oc2cccc3cccnc23)nc1	32.5 (≈ 146 µM)
O=c1sc2ccccc2c(N2CCOCC2)c1[N+](=O)[O-]	12.8 (≈ 43.8 µM)
COCc1cc(C)nc(SCc2ccccc2Cl)c1C#N	0.3 (≈ 0.941 µM)
O=[N+]([O-])c1ccc(-c2nc(C(Cl)Cl)c3ccccc3n2)cc1	0.5 (≈ 1.5 µM)
Cc1ccc(NC(=O)/C(=C\c2ccccc2)NC(=O)c2ccco2)cc1	4.7 (≈ 13.6 µM)
CS(=O)(=O)N(CC(=O)N1CCOCC1)c1ccccc1Br	> 56.6
Cc1cc(C)nc(/N=C(\N)Nc2ccc(S(N)(=O)=O)cc2)n1	44.6 (≈ 139 µM)
CCC(C)NC(=O)CN1C(=O)c2cccc3cccc1c23 (stereo not given)	6.3 (≈ 22.3 µM)
Cc1[nH]nc(SCC(=O)N2CCOCC2)c1[N+](=O)[O-]	> 42.9
COc1ccccc1C1CCN(C(=O)c2cccc([N+](=O)[O-])c2)CC1	39.5 (≈ 116 µM)
Cc1sc(N)nc1C12CC3CC(CC(C3)C1)C2	3.3 (≈ 13.3 µM)
Cn1c(S(=O)(=O)Cc2ccc(Cl)cc2)nc2ccccc21	8.7 (≈ 27.1 µM)
COc1ccc(C(=O)NC(=O)COC(=O)c2ccc(C)o2)cc1	7 (≈ 22.1 µM)
COc1ccccc1N(Cc1ccccc1)S(=O)(=O)c1cccc(C(=O)N2CCCCC2)c1	11.3 (≈ 24.3 µM)
CCc1ccccc1NC(=O)c1cc(-c2cccs2)on1	0.8 (≈ 2.68 µM)
CCOc1ccc(-n2c(=O)c3ccccc3c3ccccc3c2=O)cc1	18 (≈ 52.4 µM)
Cn1c(CO)cnc1S(=O)(=O)Cc1c(Cl)cccc1Cl	> 50.3
Cc1ccc(SCCOCCN2CCOCC2)cc1.Cl	> 47.7

Structure (SMILES)	solubility kinetic [µg/mL]
Cc1cccc2[nH]c(CN(C)Cc3nc(CC4CC4)no3)nc12	45.9 (≈ 147 µM)
CCOCCCNC(=O)/C(C#N)=C/c1ccc(C)o1	35.4 (≈ 135 µM)
O=C(Cn1c(CO)nc2ccccc21)NC1CCCCCC1	> 45.2
Cc1ccc(CNC(=S)NC2CCC(C(C)(C)C)CC2)cc1 (stereo not given)	< 0.3
O=C(COC(=O)c1ccc2ccccc2c1O)NCC(F)(F)F	2.5 (≈ 7.64 µM)
CC(C)(CO)NCC#Cc1ccccc1.Cl	> 36
CCCc1[nH]n(-c2nc3ccccc3s2)c(=O)c1C=NCCCOC	> 53.8
CCOc1ccccc1NC(=O)NCc1ccccn1	> 40.7
Cn1c(N2CCOCC2)c(C#N)c2ccccc21	17 (≈ 70.5 µM)
CCOc1ccc(CNc2ncc(-c3ccccc3)n2C)cc1	26 (≈ 84.6 µM)
COc1ccccc1-n1c(-c2ccccc2)nc2ccccc2c1=O	> 49.3
CC(=O)Oc1ccccc1/C=C/c1nc2ccccc2c(=O)o1	27.2 (≈ 88.5 µM)
Cc1ccc2[nH]c(CNC(=O)C3CCCCC3)cc2c1	19.6 (≈ 72.5 µM)
CCOc1ccc(S(=O)(=O)NC2=NCCCCC2)cc1	> 44.5
Cc1ccc(C(=O)OCC(=O)NC2CCCC2)cc1	22.5 (≈ 86.1 µM)
CC(=O)NC(Cc1c[nH]c2ccccc12)C(=O)NCc1ccco1 (stereo not given)	> 48.8
COc1ccc(/C=N/OC(=O)Nc2ccc(Cl)cc2)c(OC)c1	6.2 (≈ 18.5 µM)
Cc1ccc(S(=O)(=O)c2cc3ccccc3nc2N)cc1	0.5 (≈ 1.68 µM)
Cc1ccccc1C(=O)N1CCC(C(=O)OCc2ccccn2)CC1	> 50.8
O=S(=O)(Nc1cccc(Oc2ccc(Cl)cc2)n1)c1ccc(F)cc1	41.9 (≈ 111 µM)
CC1CC(C)CN(C(=O)CSCC(=O)O)C1 (stereo not given)	> 36.8
CC(=O)c1cccc(NC(=O)NC2CCCCCCC2)c1	2.5 (≈ 8.67 µM)
CCOc1ccc(Cc2onc3c2C(=O)CC(C)(C)C3)cc1OCC	32.6 (≈ 94.9 µM)
Cn1ncc(Cl)c1C(=O)N1CCC2(CC1)OCCO2	> 42.9
